These results are taken from ChEMBL document CHEMBL4265942, “Four new antitumor metabolites isolated from a mutant 3-f-31 strain derived from Penicillium purpurogenum G59” (Eur J Med Chem, 2018).

In one assay the test system is L929. As to the kind of experiment: Cytotoxicity against mouse L929 cells assessed as inhibition of cell growth after 72 hrs by MTT assay. In kind it is cell-based. The conditions noted are these: L929, 72 h.
The test system of assay [1] is A549. As to the kind of experiment: Antiproliferative activity against human A549 cells assessed as inhibition of cell growth after 72 hrs by sulforhodamine B assay. The format is functional, cell-based. The conditions noted are these: A549, 72 h. (In general: Sulforhodamine B stains cellular protein and so reports cell mass.)
Assay [2] deals with HeLa. As to the kind of experiment: Antiproliferative activity against human HeLa cells assessed as inhibition of cell growth after 72 hrs by sulforhodamine B assay. The format is functional, cell-based.
Assay [3] deals with MCF7. As to the kind of experiment: Antiproliferative activity against human MCF7 cells assessed as inhibition of cell growth after 72 hrs by sulforhodamine B assay. In kind it is functional, cell-based. As to conditions: MCF7, 72 h.
Assay [4] has as its system HCT-116. As to the kind of experiment: Antiproliferative activity against human HCT116 cells assessed as inhibition of cell growth after 72 hrs by sulforhodamine B assay. The format is functional, cell-based. As to conditions: HCT-116, 72 h.
The test system of assay [5] is HepG2. As to the kind of experiment: Antiproliferative activity against human HepG2 cells assessed as inhibition of cell growth after 72 hrs by sulforhodamine B assay. The format is functional, cell-based. The conditions noted are these: HepG2, 72 h.
The test system of assay [6] is NCI-H1975. As to the kind of experiment: Antiproliferative activity against human NCI-H1975 cells assessed as inhibition of cell growth after 72 hrs by sulforhodamine B assay. In kind it is functional, cell-based. The conditions noted are these: NCI-H1975, 72 h.
Assay [7] concerns HL-60. As to the kind of experiment: Antiproliferative activity against human HL60 cells assessed as inhibition of cell growth after 72 hrs by MTT assay. The format is functional, cell-based. As to conditions: HL-60, 72 h. In general terms: Tetrazolium dyes change colour on reduction, which living cells bring about.
Assay [8] concerns K562. As to the kind of experiment: Antiproliferative activity against human K562 cells assessed as inhibition of cell growth after 72 hrs by MTT assay. In kind it is functional, cell-based. The conditions noted are these: K562, 72 h.
For assay [9], the system named is LS180. As to the kind of experiment: Antiproliferative activity against human LS180 cells assessed as inhibition of cell growth after 72 hrs by sulforhodamine B assay. In kind it is functional, cell-based. As to conditions: LS180, 72 h.
In assay [10] the test system is SW480. As to the kind of experiment: Antiproliferative activity against human SW480 cells assessed as inhibition of cell growth after 72 hrs by sulforhodamine B assay. In kind it is functional, cell-based. As to conditions: SW480, 72 h.
The subject of assay [11] is HT-29. As to the kind of experiment: Antiproliferative activity against human HT-29 cells assessed as inhibition of cell growth after 72 hrs by sulforhodamine B assay. The format is functional, cell-based. As to conditions: HT-29, 72 h.
Assay [12] concerns PC-3. As to the kind of experiment: Antiproliferative activity against human PC3 cells assessed as inhibition of cell growth after 72 hrs by sulforhodamine B assay. In kind it is functional, cell-based. The conditions noted are these: PC-3, 72 h.
In assay [13] the test system is BXPC-3. As to the kind of experiment: Antiproliferative activity against human BxPC3 cells assessed as inhibition of cell growth after 72 hrs by sulforhodamine B assay. The format is functional, cell-based. As to conditions: BXPC-3, 72 h.
For assay [14], the system named is PANC-1. As to the kind of experiment: Antiproliferative activity against human PANC1 cells assessed as inhibition of cell growth after 72 hrs by sulforhodamine B assay. In kind it is functional, cell-based. The conditions noted are these: PANC-1, 72 h.
Assay [15] deals with HCT-116. As to the kind of experiment: Down regulation of HSP90 expression in human HCT116 cells after 48 hrs by Western blot analysis. The format is functional, cell-based. (In general: Immunoblotting shows a protein as a band on a membrane.)
Assay [16] has as its system HCT-116. As to the kind of experiment: Down regulation of STAT3 expression in human HCT116 cells after 48 hrs by Western blot analysis. In kind it is functional, cell-based.
Assay [17] deals with HCT-116. As to the kind of experiment: Down regulation of phosphorylated STAT3 expression in human HCT116 cells after 48 hrs by Western blot analysis. In kind it is functional, cell-based.
The test system of assay [18] is HCT-116. As to the kind of experiment: Down regulation of AKT expression in human HCT116 cells after 48 hrs by Western blot analysis. In kind it is functional, cell-based.
For assay [19], the system named is HCT-116. As to the kind of experiment: Down regulation of Raf1 expression in human HCT116 cells after 48 hrs by Western blot analysis. In kind it is functional, cell-based.
The test system of assay [20] is HCT-116. As to the kind of experiment: Down regulation of ERK1/2 expression in human HCT116 cells after 48 hrs by Western blot analysis. The format is functional, cell-based.
The subject of assay [21] is HCT-116. As to the kind of experiment: Down regulation of survivin expression in human HCT116 cells after 48 hrs by Western blot analysis. In kind it is functional, cell-based.
For assay [22], the system named is A549. As to the kind of experiment: Antiproliferative activity against human A549 cells assessed as inhibition of cell growth at 100 uM after 72 hrs by sulforhodamine B assay relative to control. The format is functional. The conditions noted are these: A549, 72 h.
Assay [23] deals with HeLa. As to the kind of experiment: Antiproliferative activity against human HeLa cells assessed as inhibition of cell growth at 100 uM after 72 hrs by sulforhodamine B assay relative to control. The format is functional.
Assay [24] concerns MCF7. As to the kind of experiment: Antiproliferative activity against human MCF7 cells assessed as inhibition of cell growth at 100 uM after 72 hrs by sulforhodamine B assay relative to control. The format is functional. The conditions noted are these: MCF7, 72 h.
In assay [25] the test system is HCT-116. As to the kind of experiment: Antiproliferative activity against human HCT116 cells assessed as inhibition of cell growth at 100 uM after 72 hrs by sulforhodamine B assay relative to control. In kind it is functional. The conditions noted are these: HCT-116, 72 h.
Assay [26] deals with HepG2. As to the kind of experiment: Antiproliferative activity against human HepG2 cells assessed as inhibition of cell growth at 100 uM after 72 hrs by sulforhodamine B assay relative to control. The format is functional. The conditions noted are these: HepG2, 72 h.
The subject of assay [27] is NCI-H1975. As to the kind of experiment: Antiproliferative activity against human NCI-H1975 cells assessed as inhibition of cell growth at 100 uM after 72 hrs by sulforhodamine B assay relative to control. The conditions noted are these: NCI-H1975, 72 h. In kind it is functional.
The test system of assay [28] is HL-60. As to the kind of experiment: Antiproliferative activity against human HL60 cells assessed as inhibition of cell growth at 100 uM after 72 hrs by MTT assay relative to control. In kind it is functional. The conditions noted are these: HL-60, 72 h.
In assay [29] the test system is K562. As to the kind of experiment: Antiproliferative activity against human K562 cells assessed as inhibition of cell growth at 100 uM after 72 hrs by MTT assay relative to control. In kind it is functional. The conditions noted are these: K562, 72 h.
The test system of assay [30] is LS180. As to the kind of experiment: Antiproliferative activity against human LS180 cells assessed as inhibition of cell growth at 100 uM after 72 hrs by sulforhodamine B assay relative to control. In kind it is functional. The conditions noted are these: LS180, 72 h.
Assay [31] deals with SW480. As to the kind of experiment: Antiproliferative activity against human SW480 cells assessed as inhibition of cell growth at 100 uM after 72 hrs by sulforhodamine B assay relative to control. The format is functional. As to conditions: SW480, 72 h.
The test system of assay [32] is HT-29. As to the kind of experiment: Antiproliferative activity against human HT-29 cells assessed as inhibition of cell growth at 100 uM after 72 hrs by sulforhodamine B assay relative to control. The format is functional. The conditions noted are these: HT-29, 72 h.
Assay [33] relates to PC-3. As to the kind of experiment: Antiproliferative activity against human PC3 cells assessed as inhibition of cell growth at 100 uM after 72 hrs by sulforhodamine B assay relative to control. In kind it is functional. As to conditions: PC-3, 72 h.
The subject of assay [34] is BXPC-3. As to the kind of experiment: Antiproliferative activity against human BxPC3 cells assessed as inhibition of cell growth at 100 uM after 72 hrs by sulforhodamine B assay relative to control. In kind it is functional. As to conditions: BXPC-3, 72 h.
Assay [35] has as its system PANC-1. As to the kind of experiment: Antiproliferative activity against human PANC1 cells assessed as inhibition of cell growth at 100 uM after 72 hrs by sulforhodamine B assay relative to control. The format is functional. The conditions noted are these: PANC-1, 72 h.

Molecules are shown by their SMILES.

By IC50 is commonly meant the midpoint of a concentration-inhibition curve. Turning to `CCCCCC[C@@H](C)C[C@@H](C)/C=C/C(=O)N[C@@H]1C[C@@]2(O[C@@H]1O)[C@@H]1O[C@@H]1[C@](O)(CC(C)=O)[C@@H]1O[C@@H]12`, the half-inhibitory concentration (IC50) in the assay on L929 is 4.68 µM; in the assay with A549 [1] it was 9.83 µM; with HeLa [2] it was 6.25 µM; in the assay on MCF7 [3] it was 4.11 µM; in the assay with HCT-116 [4], 2.54 µM; in the assay on HepG2 [5], 6.58 µM. For the same compound, the half-inhibitory concentration (IC50) came to 3.37 µM with NCI-H1975 [6]; 3.13 µM with HL-60 [7]; 5.16 µM with K562 [8]; 17 µM in the assay with LS180 [9]; 3.57 µM in the assay with SW480 [10]; 10.2 µM in the assay on HT-29 [11]. In addition, the IC50 with PC-3 [12] came out at 7.6 µM; in the assay on BXPC-3 [13] it was 7.3 µM; in the assay on PANC-1 [14], 4.42 µM. Also, the Activity result with HCT-116 [15], with HCT-116 [16], in the assay with HCT-116 [17], in the assay on HCT-116 [18], in the assay with HCT-116 [19] and in the assay on HCT-116 [20] was “Dose-dependent effect” throughout. Moreover, the Activity entry with HCT-116 [21] is “Dose-dependent effect”.

In general, inhibition refers to how much of the control response was suppressed. Turning to `O=c1[nH]cc(F)c(=O)[nH]1` [FLUOROURACIL], the inhibition at 100 µM in the assay with A549 [22], in the assay with HeLa [23], in the assay with MCF7 [24], in the assay on HCT-116 [25], with HepG2 [26] and with NCI-H1975 [27] was 41 to 95% throughout. The inhibition at 100 µM in the assay on HL-60 [28], with K562 [29], in the assay with LS180 [30], in the assay with SW480 [31], with HT-29 [32] and with PC-3 [33] was 41 to 95% each time. Also, the inhibition at 100 µM in the assay on BXPC-3 [34] and in the assay on PANC-1 [35] was 41 to 95% throughout.

Regarding `CCCCCC[C@@H](C)C[C@@H](C)/C=C/C(=O)N[C@H]1C[C@@]2(O[C@@H]1OC)[C@@H]1O[C@@H]1[C@](O)(CC(C)=O)[C@@H]1O[C@@H]12`, the half-inhibitory concentration (IC50) came out at 3.69 µM with L929; 14.8 µM with A549 [1]; 8.65 µM with HeLa [2]; 4.06 µM in the assay on MCF7 [3]; 2.61 µM in the assay on HCT-116 [4]; 9.58 µM in the assay on HepG2 [5]. Besides, the half-maximal inhibitory concentration (IC50) is 4.77 µM with NCI-H1975 [6]; 10.8 µM in the assay on HL-60 [7]; 6.46 µM with K562 [8]; 13.9 µM in the assay with LS180 [9]; 3.85 µM in the assay with SW480 [10]; 9.85 µM in the assay with HT-29 [11]. Besides, the IC50 with PC-3 [12] came out at 6.33 µM; with BXPC-3 [13], 10.5 µM; in the assay with PANC-1 [14] it was 5.77 µM.
